Test results as given in patent publication US20090298891A1, “Methods of Treating or Preventing Cancer Using Pyridine Carboxaldehyde Pyridine Thiosemicarbazone Radiosensitizing Agents” (GOVERNMENT OF THE US, AS REPRESENTED BY THE SECRETADY OF …, priority 2005, published 2009).

Tests used:
[1] = test system: DU145 (prostate carcinoma) cell line; experiment: Clonogenic assay, DU145; type: cell-based, human
Procedure: (§1) Cell lines and treatment. Three human tumor cell lines were evaluated: a glioma (U251), a pancreatic carcinoma (PSN1) and a prostate carcinoma (DU145), each was obtained from the Developmental Therapeutics Program, DCTD, NCI. The cell lines were grown in RPMI 1640 (Life Technologies, Rockville, Md.) containing […] (5 mM) and 5% FBS and maintained at 37° C. in an atmosphere of 5% CO2 and 95% room air. Triapine (3-amino-2-carboxaldehyde-pyridine thiosemicarbazone), provided by Vion Pharmaceuticals of New Haven, Conn., was dissolved in dimethylsulfoxide to a stock concentration of 10 mM and stored at −20° C. Cultures were irradiated using a Pantak (Solon, Ohio) X-ray source at a dose rate of 1.55 Gy/minute.
(§2) Clonogenic assay. Cell cultures were trypsinized to generate a single cell suspension and a specified number of cells were seeded into each well of 6-well tissue culture plates. In the first experiment, drug or vehicle control was, added at specified concentrations, and the plates were irradiated 16 hours later. Immediately after irradiation, the growth media was aspirated, and fresh media was added. In the second experiment, cells were seeded, and irradiated 6 hours after seeding. Immediately after irradiation, the cells were treated with the specified concentration of drug. After 16 hours of exposure, drug was aspirated, and replaced with fresh media. Ten to twelve days after seeding, colonies were stained with crystal violet, and the number of colonies containing at least 50 cells was determined and the surviving fractions were calculated. Survival curves were generated after normalizing for the cytotoxicity generated by drug alone. Data presented are the mean±SEM from at least three independent experiments. Radiation dose enhancement factors (DEFs) represent the ratio of radiation dose required to achieve 10% survival in the control cells and the drug-treated cells.

U251 cells = experiment: Cell cycle phase analysis (flow cytometry); type: cell-based, human; details: 16 hours of Triapine exposure (5 μM)
Procedure: Cell Cycle Phase Analysis. Cell cycle phase distribution was analyzed using flow cytometry. Cells were seeded in T75 flasks at subconfluent density and exposed to Triapine, or vehicle for 16 hours, at which time cells were fixated and stained with propidium iodide for flow cytometry analysis at the Clinical Services Program at the National Cancer Institute-Frederick. A two-tailed, paired t-test was performed on the data from the replicated analysis.

[2] = test system: U251 (human glioma) cell line; experiment: Clonogenic assay, U251; type: cell-based
Procedure: as §1, §2

U251 tumors = experiment: In vivo tumor growth delay assay, U251 xenografts; design: species or system mice; details: combination of Triapine and radiation
Procedure: In Vivo Tumor Growth Delay Assay. Male 6 week old athymic nude mice (NCr nu/nu) were used in these studies. Mice, housed in filter-topped cages, were provided autoclaved feed and hyperchlorinated water ad libitum. U251 or PSN1 tumor cells were implanted subcutaneously in the hind leg. Irradiation was performed using a Pantak (Solon, Ohio) irradiator with animals restrained in a custom lead jig, which allowed for the localized irradiation of tumors at the base of the tail. When tumors reached 177 mm^3 (7×7 mm) Triapine (30-60 mg/kg) was delivered by intraperitoneal injection and 6 h later tumors were irradiated with a single dose of 4 or 5 Gy. To obtain growth curves, perpendicular diameter measurements of each tumor were collected every 3 days with calipers, and the volumes were calculated using the formula (L×W×W)/2. Tumors were followed until the group's tumors were greater than 1500 mm^3. Specific tumor growth delay was calculated as the number of days for the treated tumors to grow to 1400 mm^3 minus the number of days for the control group to reach the same size. […]
In vivo activity of Triapine in conjunction with radiation was determined through growth delays in mice with subcutaneous human tumor xenografts. Based on the above described in vitro results, xenografts of PSN1 and U251 were evaluated in vivo. […]

[3] = test system: PSN1 (pancreatic carcinoma) cell line; experiment: Clonogenic assay, PSN1; type: cell-based, human
Procedure: as §1, §2

[4] = test system: DNA synthesis activity in U251 cells; experiment: DNA synthesis assay (BrdU incorporation); type: cell-based, human; details: after 16 hours of Triapine exposure
Procedure: DNA Synthesis Assay. DNA synthesis was quantified as an indirect measure of ribonucleotide reductase activity. A 5-bromo-2′-deoxyuridine (BrdU) incorporation assay kit (#1669915) produced by Roche Applied Science (Mannheim, Germany) was used. Cells were seeded in wells of a black wall 96-well plate and allowed to incubate for 24 hours. Drug was added, and after 16 hours of exposure, 10 μM BrdU pulses were added hourly for 2 hours, according to manufacturer's instructions. After fixation, an anti-BrdU peroxidase antibody conjugate was applied for 90 minutes at room temperature. The conjugate was then rinsed three times, and luminol was added. Chemiluminescence was detected with a Wallac 1420 multilabel counter (Perkin Elmer Life Sciences, Turku, Finland), and data was exported for off-line analysis. Triplicate samples were run for three independent experiments; data is presented as the mean of three experiments±SEM.

PSN1 tumors = experiment: In vivo tumor growth delay assay, PSN1 xenografts; design: species or system mice
Procedure: In Vivo Tumor Growth Delay Assay. Male 6 week old athymic nude mice (NCr nu/nu) were used in these studies. Mice, housed in filter-topped cages, were provided autoclaved feed and hyperchlorinated water ad libitum. U251 or PSN1 tumor cells were implanted subcutaneously in the hind leg. Irradiation was performed using a Pantak (Solon, Ohio) irradiator with animals restrained in a custom lead jig, which allowed for the localized irradiation of tumors at the base of the tail. When tumors reached 177 mm^3 (7×7 mm) Triapine (30-60 mg/kg) was delivered by intraperitoneal injection and 6 h later tumors were irradiated with a single dose of 4 or 5 Gy. To obtain growth curves, perpendicular diameter measurements of each tumor were collected every 3 days with calipers, and the volumes were calculated using the formula (L×W×W)/2. Tumors were followed until the group's tumors were greater than 1500 mm^3. Specific tumor growth delay was calculated as the number of days for the treated tumors to grow to 1400 mm^3 minus the number of days for the control group to reach the same size. Each experimental group contained 10 mice and the untreated group contained 15 mice. All animal studies were conducted in accordance with the principles and procedures outlined in the U.S.P.H.S. Guide for the Care and Use of Laboratory Animals in an AAALAC-approved facility under an approved animal protocol.
In vivo activity of Triapine in conjunction with radiation was determined through growth delays in mice with subcutaneous human tumor xenografts. Based on the above described in vitro results, xenografts of PSN1 and U251 were evaluated in vivo. Triapine (40 mg/kg) was given 6 hours prior to a single radiation dose (4 or 5 Gy). After 3 volumetric doublings of the PSN1 tumors, Triapine alone yielded a 1.6 day growth delay, and radiation caused a 9.8 day growth delay. […] See, FIG. 8 (U251) and FIG. 9 (PSN1) for a graph of tumor growth delay data.

Structure (SMILES): NC(=S)N/N=C/c1ncccc1N [Triapine, 3-amino-2-carboxaldehyde-pyridine thiosemicarbazone]
- Survival following 16 hours of Triapine exposure ([1]; DU145, 5 μM, drug alone): 68%
- radiosensitization / DEF, Triapine after irradiation ([1]; DU145, Triapine for 16 hours after irradiation): DEFs similar to those obtained when cells were exposed prior to irradiation
- dose enhancement factor (DEF) ([1]; DU145, Triapine given prior to radiation, ratio of radiation dose for 10% survival): 2.05
- percentage of cells in G1 (U251 cells): increased
- percentage of cells in G2/M (U251 cells): decreased
- Survival following 16 hours of Triapine exposure ([2]; U251, 5 μM, drug alone): 53%
- radiosensitization / DEF, Triapine after irradiation ([2]; U251, Triapine for 16 hours after irradiation): DEFs similar to those obtained when cells were exposed prior to irradiation
- dose enhancement factor (DEF) ([2]; U251, Triapine given prior to radiation, ratio of radiation dose for 10% survival): 1.50
- growth delay / DEF effect of combination (U251 tumors): a similar effect was observed
- Survival following 16 hours of Triapine exposure ([3]; PSN1, 3 μM, drug alone): 33%
- radiosensitization / DEF, Triapine after irradiation ([3]; PSN1, Triapine for 16 hours after irradiation): DEFs similar to those obtained when cells were exposed prior to irradiation
- dose enhancement factor (DEF) ([3]; PSN1, Triapine given prior to radiation, ratio of radiation dose for 10% survival): 1.64
- DNA synthesis [4]: less than 5 % of control
- time for DNA synthesis to return to control levels [4]: 7 h
- growth delay (PSN1 tumors; Triapine alone, 40 mg/kg intraperitoneal, after 3 volumetric doublings of PSN1 tumors): 1.6 days
- growth delay (PSN1 tumors; combination of Triapine (40 mg/kg, 6 hours prior) and single radiation dose (4 or 5 Gy), PSN1 tumors): 20.9 days
- DEF (in vivo) (PSN1 tumors; combination of Triapine and radiation, PSN1 tumors): 2.0
